Assay: GSH reactivity in pH 7.4 sodium phosphate deuterium oxide buffer assessed as half life in presence of glutathione measured up to 6 hrs by 1H NMR analysis
Assay type: ADME
Settings: sodium phosphate deuterium oxide buffer with glutathione

With `C=C1C(=O)C=C[C@]2(C)[C@@H]1CC[C@@]13C/C(=N\OC)[C@@](C)(CC[C@H]12)C3` as the molecule, how does the half-life read?
The half-life was 30 min.

Reference: ChEMBL document CHEMBL4706618, “Discovery of lysosome-targeted covalent anticancer agents based on isosteviol skeleton” (Eur J Med Chem, 2021)
